Test results reported in patent US20100210664A1, “BENZENESULFONAMIDE COMPOUNDS SUITABLE FOR TREATING DISORDERS THAT RESPOND TO MODULATION OF THE DOPAMINE D3 RECEPTOR” (priority 2007, published 2010).
pKi: −log10 of the molar value.

Columns and labels:
[1] = biological target: T1, human dopamine D2L receptors (long isoform) (Homo sapiens, UniProt P14416); assay: Dopamine D2L receptor binding, displacement of [125I] iodospiperone; conditions: ratio Ki(D2L)/Ki(D3); HEK-293 membranes
T1 construct: expressed in transfected cells; host or cells: HEK-293 cells (membranes)
Description: (§1) The substance to be tested was either dissolved in methanol/Chremophor® (BASF-AG) or in dimethyl sulfoxide and then diluted with water to the desired concentration.
(§2) Each assay mixture was run in triplicate.
The incubation buffer contained 50 mM tris, 120 mM NaCl, 5 mM KCl, 2 mM CaCl2, 2 mM MgCl2 and 0.1% bovine serum albumin. The buffer was adjusted to pH 7.4 with HCl.
(§3) After having been incubated at 25° C. for 60 minutes, the assay mixtures were filtered through a Whatman GF/B glass fiber filter under vacuum using a cell collecting device. The filters were transferred to scintillation viols using a filter transfer system. After 4 ml of Ultima Gold® (Packard) have been added, the samples were shaken for one hour and the radioactivity was then counted in a Beta-Counter (Packard, Tricarb 2000 or 2200CA). The cpm values were converted into dpm using a standard quench series and the program belonging to the instrument.
(§4) The inhibition curves were analyzed by means of iterative nonlinear regression analysis using the Statistical Analysis System (SAS) which is similar to the “LIGAND” program described by Munson and Rodbard.

[2] = biological target: T2, human dopamine D3 receptors (Homo sapiens, UniProt P35462); assay: Dopamine D3 receptor binding, displacement of [125I]-iodosulpride; conditions: membranes of HEK-293 cells stably expressing human D3; 0.1 nM [125I]-iodosulpride
T2 construct: expressed in transfected cells; host or cells: HEK-293 cells (membranes)
Description: as §1, §2
The incubation buffer contained 50 mM tris, 120 mM NaCl, 5 mM KCl, 2 mM CaCl2, 2 mM MgCl2 and 0.1% bovine serum albumin, 10 μM quinolone and 0.1% ascorbic acid (prepared fresh daily). The buffer was adjusted to pH 7.4 with HCl.
as §3, §4

T2 sequence (P35462 whole entry): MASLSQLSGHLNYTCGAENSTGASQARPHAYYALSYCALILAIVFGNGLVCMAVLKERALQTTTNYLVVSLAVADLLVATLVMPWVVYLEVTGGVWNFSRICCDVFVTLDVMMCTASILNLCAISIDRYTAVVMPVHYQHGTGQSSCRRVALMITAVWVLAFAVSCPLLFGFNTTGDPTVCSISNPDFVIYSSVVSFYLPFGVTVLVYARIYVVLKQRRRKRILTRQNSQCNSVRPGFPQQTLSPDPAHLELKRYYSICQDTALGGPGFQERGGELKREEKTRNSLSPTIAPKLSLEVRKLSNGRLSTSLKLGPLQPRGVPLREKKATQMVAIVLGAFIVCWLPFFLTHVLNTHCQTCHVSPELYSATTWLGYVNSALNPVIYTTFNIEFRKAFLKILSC
T1 sequence (P14416 whole entry, canonical isoform): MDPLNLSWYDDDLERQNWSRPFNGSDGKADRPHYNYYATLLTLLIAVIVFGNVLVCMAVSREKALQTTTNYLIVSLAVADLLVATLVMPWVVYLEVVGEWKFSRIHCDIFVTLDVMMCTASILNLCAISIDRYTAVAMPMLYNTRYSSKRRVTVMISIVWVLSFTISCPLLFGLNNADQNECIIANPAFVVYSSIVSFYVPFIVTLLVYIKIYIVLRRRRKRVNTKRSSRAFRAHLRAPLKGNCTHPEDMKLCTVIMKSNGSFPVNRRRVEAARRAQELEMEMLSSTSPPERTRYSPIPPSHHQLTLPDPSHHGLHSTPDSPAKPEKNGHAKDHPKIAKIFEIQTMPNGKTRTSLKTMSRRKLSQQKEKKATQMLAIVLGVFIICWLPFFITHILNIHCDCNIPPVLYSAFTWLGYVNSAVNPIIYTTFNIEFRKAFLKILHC

| SMILES | Selectivity vs. D2L, Ki(D2L)/Ki(D3) [1] | pKi [2] |
| --- | --- | --- |
| Cc1nc(N2CCNCC2)ccc1NS(=O)(=O)c1ccc(C(C)C(F)(F)F)cc1 (centres unmarked) [Example 11, 4-(2,2,2-Trifluoro-1-methyl-ethyl)-N-(2-methyl-6-piperazin-1-yl-pyridin-3-yl)-benzenesulfonamide] | >50 | > 8.00 |
| Cc1nc(N2CCNCC2)ccc1NS(=O)(=O)c1ccc([C@H](C)C(F)(F)F)cc1 [Example 13, 4-((S)-2,2,2-Trifluoro-1-methyl-ethyl)-N-(2-methyl-6-piperazin-1-yl-pyridin-3-yl)-benzenesulfonamide] | >50 | > 8.00 |
| Cc1nc(N2CCNCC2)ccc1NS(=O)(=O)c1ccc([C@@H](C)C(F)F)cc1 [Example 10, 4-((R)-2,2-Difluoro-1-methyl-ethyl)-N-(2-methyl-6-piperazin-1-yl-pyridin-3-yl)-benzenesulfonamide] | >50 | > 8.00 |
| COc1nc(N2CCNCC2)ccc1NS(=O)(=O)c1ccc([C@H](C)C(F)(F)F)cc1 [Example 18, N-(2-Methoxy-6-piperazin-1-yl-pyridin-3-yl)-4-((S)-2,2,2-trifluoro-1-methyl-ethyl)-benzenesulfonamide] | >50 | > 8.00 |
| Cc1nc(N2CCN[C@@H](C)C2)ccc1NS(=O)(=O)c1ccc([C@@H](C)CF)cc1 [Example 2, 4-((R)-2-Fluoro-1-methyl-ethyl)-N-[2-methyl-6-((S)-3-methyl-piperazin-1-yl)-pyridin-3-yl]-benzenesulfonamide] | >50 | > 8.00 |
| COc1nc(N2CCNCC2)ccc1NS(=O)(=O)c1ccc(C(C)C(F)F)cc1 (centres unmarked) [Example 16, 4-(2,2-Difluoro-1-methyl-ethyl)-N-(2-methoxy-6-piperazin-1-yl-pyridin-3-yl)-benzenesulfonamide] | >50 | > 8.00 |
| Cc1nc(N2CCN[C@@H](C)C2)ccc1NS(=O)(=O)c1ccc([C@H](C)CF)cc1 [Example 1, 4-((S)-2-Fluoro-1-methyl-ethyl)-N-[2-methyl-6-((S)-3-methyl-piperazin-1-yl)-pyridin-3-yl]-benzenesulfonamide] | >50 | > 8.00 |
| Cc1nc(N2CCNCC2)ccc1NS(=O)(=O)c1ccc([C@H](C)CF)cc1 [Example 6, 4-((S)-2-Fluoro-1-methyl-ethyl)-N-[2-methyl-6-piperazin-1-yl-pyridin-3-yl]-benzenesulfonamide] | >50 | > 8.00 |
| Cc1nc(N2CCNCC2)ccc1NS(=O)(=O)c1ccc([C@@H](C)C(F)(F)F)cc1 [Example 12, 4-((R)-2,2,2-Trifluoro-1-methyl-ethyl)-N-(2-methyl-6-piperazin-1-yl-pyridin-3-yl)-benzenesulfonamide] | >50 | > 8.00 |
| Cc1nc(N2CCNCC2)ccc1NS(=O)(=O)c1ccc(C(C)C(F)F)cc1 (centres unmarked) [Example 8, 4-(2,2-Difluoro-1-methyl-ethyl)-N-(2-methyl-6-piperazin-1-yl-pyridin-3-yl)-benzenesulfonamide] | >50 | > 8.00 |
| Cc1nc(N2CCNCC2)c(Br)cc1NS(=O)(=O)c1ccc([C@H](C)CF)cc1 [Example 7, N-(5-Bromo-2-methyl-6-piperazin-1-yl-pyridin-3-yl)-4-((S)-2-fluoro-1-methyl-ethyl)-benzenesulfonamide, reference compound] | >10 | > 6.00 |
| COc1nc(N2CCNCC2)ccc1NS(=O)(=O)c1ccc(C(C)C(F)(F)F)cc1 (centres unmarked) [Example 17, N-(2-Methoxy-6-piperazin-1-yl-pyridin-3-yl)-4-(2,2,2-trifluoro-1-methyl-ethyl)-benzenesulfonamide] | >50 | > 8.00 |
| Cc1nc(N2CCNCC2)ccc1NS(=O)(=O)c1ccc([C@H](C)C(F)F)cc1 [Example 9, 4-((S)-2,2-Difluoro-1-methyl-ethyl)-N-(2-methyl-6-piperazin-1-yl-pyridin-3-yl)-benzenesulfonamide] | >50 | > 8.00 |
| COc1nc(N2CCNCC2)ccc1NS(=O)(=O)c1ccc([C@@H](C)CF)cc1 [Example 14, 4-((R)-2-Fluoro-1-methyl-ethyl)-N-(2-methoxy-6-piperazin-1-yl-pyridin-3-yl)-benzenesulfonamide] | >50 | > 8.00 |
| COc1nc(N2CCNCC2)ccc1NS(=O)(=O)c1ccc([C@H](C)CF)cc1 [Example 15, 4-((S)-2-Fluoro-1-methyl-ethyl)-N-(2-methoxy-6-piperazin-1-yl-pyridin-3-yl)-benzenesulfonamide] | >50 | > 8.00 |
| Cc1nc(N2CCNCC2)ccc1NS(=O)(=O)c1ccc([C@@H](C)CF)cc1 [Example 5, 4-((R)-2-Fluoro-1-methyl-ethyl)-N-[2-methyl-6-piperazin-1-yl-pyridin-3-yl]-benzenesulfonamide] | >50 | > 8.00 |
